Data on 11 compounds can be found in ChEMBL document CHEMBL1201862, “PubChem BioAssay data set” (2004).

Among the test systems are HCT-15; SN12C; K562; HOP-62; SW-620; PC-3; CCRF-CEM; DU-145; HT-29; MCF7; NCI-H226; A549; RPMI-8226; A498; HCC 2998; LOX IMVI; IGROV-1; SNB-19; SR; BT-549.
Holding throughout (assay): DTP human tumour cell line panel, 48 h

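These data come from cells grown in 96-well plates and exposed to compound for 48 hours at five concentrations. Here, GI50 denotes the concentration required for 50% inhibition of growth.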 Active and inactive are the calls of the source. Rule as the data show it: active = GI50 up to about 1.1 µM and inactive = higher. Where a SMILES comes first, the peptide text is derived from it. The star is where a group is joined. Boc = CC(C)(C)OC(=O)*

As for `O=C(c1ccccc1)N1C(=S)N(c2ccccn2)C(=N/c2ccccc2)/C1=N\c1ccccc1`, the GI50 (in general, the concentration giving 50% growth inhibition) was 3.79 µM with HCT-15; 31.5 µM (inactive) in the test on SN12C; 7.18 µM (inactive) in the test on K562; 27.4 µM (inactive) in the test on HOP-62; 5.19 µM (inactive) with SW-620; 9.84 µM (inactive) in the test with PC-3. Moreover, the GI50 was 2.57 µM (inactive) in the test with CCRF-CEM; > 61.9 µM (inactive) in the test with DU-145; 11.5 µM (inactive) in the test on HT-29; 60.8 µM (inactive) in the test with MCF7; > 69.3 µM (inactive) in the test with NCI-H226; 27.5 µM (inactive) in the test on A549. The GI50 in the test with RPMI-8226 is 7.91 µM (inactive); in the test on A498, > 66.5 µM (inactive); in the test on HCC 2998, > 93.5 µM (inactive); in the test with LOX IMVI, 12.4 µM (inactive); in the test on IGROV-1, 13 µM (inactive); with SNB-19, 25.5 µM (inactive). In addition, the GI50 in the test on SR was 3.86 µM (inactive).

For `CC(C)(C)c1ccc2c(c1)C#Cc1cc3c(cc1OCCCO2)C#Cc1cc(C(C)(C)C)ccc1OCCCO3`, the concentration for 50% growth inhibition (GI50) in the test on HCT-15 was 2.45 µM; in the test on SN12C it was > 100 µM (inactive); in the test with K562, > 100 µM (inactive); with HOP-62, > 100 µM (inactive); in the test with SW-620, > 100 µM (inactive); in the test with PC-3 it was > 100 µM (inactive). Besides, the GI50 in the test on CCRF-CEM is 42.4 µM (inactive); in the test on DU-145, > 100 µM (inactive); with HT-29 it was > 100 µM (inactive); in the test on MCF7, > 100 µM (inactive); with A549 it was > 100 µM (inactive); in the test with RPMI-8226, > 100 µM (inactive). Further, the GI50 in the test on A498 is > 100 µM (inactive); in the test on HCC 2998, > 100 µM (inactive); with BT-549, 1.72 µM (inactive); in the test with LOX IMVI, > 100 µM (inactive); with IGROV-1, > 100 µM (inactive); with SNB-19, > 100 µM (inactive).

With `NC[C@H]1Nc2ccccc2[C@@H](O)C1O` (some centres not stated), the GI50 in the test with HCT-15 was over 100 µM; in the test with SN12C it was > 100 µM (inactive); with K562 it was > 100 µM (inactive); in the test with HOP-62, > 100 µM (inactive); in the test with SW-620, > 100 µM (inactive); with PC-3 it was > 100 µM (inactive). Further, the GI50 with CCRF-CEM, with DU-145, in the test on HT-29, with MCF7, with NCI-H226 and in the test with A549 was > 100 µM (inactive) throughout. Also, the GI50 with RPMI-8226, in the test with HCC 2998, in the test on LOX IMVI, with IGROV-1, with SNB-19 and in the test on SR was > 100 µM (inactive) each time.

As for `CC(=O)O[C@H]1[C@@H]2OC(=O)[C@@](O)(CC3CCCO3)[C@@H]2CC(=O)[C@](C)(O)CC/C=C(\C)CCC[C@@H]1C` (some centres not stated), the 50% growth inhibitory concentration (GI50) in the test with HCT-15 is 34.3 µM; with SN12C, 30.4 µM (inactive); in the test on K562, 24.4 µM (inactive); in the test on SW-620 it was 22.5 µM (inactive); with PC-3 it was 36.5 µM (inactive); with CCRF-CEM it was 22.7 µM (inactive). The GI50 is 37.8 µM (inactive) in the test on DU-145; 24.7 µM (inactive) in the test on MCF7; 15.6 µM (inactive) with NCI-H226; 40.6 µM (inactive) with A549; 26.2 µM (inactive) in the test with RPMI-8226; > 100 µM (inactive) in the test with A498. In addition, the GI50 with HCC 2998 is > 100 µM (inactive); with BT-549, 26.2 µM (inactive); with LOX IMVI, 20.8 µM (inactive); with IGROV-1, 46.5 µM (inactive); with SNB-19, > 100 µM (inactive).

Take `C=C1OC(=O)[C@]2([C@@H](/C=C/C)C=CC(=O)[C@H]2O)[C@@H]1O`: the 50% growth inhibitory concentration (GI50) in the test on HCT-15 is over 100 µM; in the test with SN12C, > 100 µM (inactive); in the test on K562 it was > 100 µM (inactive); in the test with HOP-62 it was > 100 µM (inactive); in the test on SW-620 it was > 100 µM (inactive); with PC-3, > 100 µM (inactive). Besides, the GI50 with CCRF-CEM, with DU-145, in the test on HT-29, in the test with MCF7, in the test on NCI-H226 and with A549 was > 100 µM (inactive) throughout. For the same compound, the GI50 with RPMI-8226 was > 100 µM (inactive); in the test on HCC 2998 it was > 100 µM (inactive); in the test with LOX IMVI it was > 100 µM (inactive); with IGROV-1 it was > 100 µM (inactive); in the test on SNB-19, > 100 µM (inactive); in the test with SR it was 73.6 µM (inactive).

On to `CCOC(=O)c1c(-c2ccccc2)c(C)cn1C`, for which the GI50 was over 10 µM in the test on HCT-15; 3.73 µM (inactive) with SN12C; > 10 µM (inactive) in the test on K562; > 10 µM (inactive) with CCRF-CEM; > 10 µM (inactive) in the test with DU-145; > 10 µM (inactive) with HT-29. The GI50 in the test with NCI-H226, in the test on A549, in the test on BT-549, in the test with IGROV-1, with SNB-19 and in the test with SR was > 10 µM (inactive) in each case.

Take `CCc1nc2ccc(C(F)(F)F)cc2[nH]c1=O`: the 50% growth inhibitory concentration (GI50) with HCT-15 is over 100 µM; in the test on SN12C, > 100 µM (inactive); with K562, > 100 µM (inactive); with HOP-62 it was > 100 µM (inactive); in the test with SW-620 it was > 100 µM (inactive); with PC-3, > 100 µM (inactive). For the same compound, the GI50 with CCRF-CEM, with DU-145, in the test on HT-29, with MCF7, with NCI-H226 and in the test on A549 was > 100 µM (inactive) in each case. Besides, the GI50 with RPMI-8226 is > 100 µM (inactive); with A498 it was 94.4 µM (inactive); in the test on HCC 2998 it was > 100 µM (inactive); with BT-549, > 100 µM (inactive); in the test with LOX IMVI, > 100 µM (inactive); in the test with SNB-19, > 100 µM (inactive).

Consider `COC(=O)CNC(=O)C(Cc1ccccc1)NC(=O)C(CCSC)NC(=O)C(Cc1ccc(O)cc1)NC(=O)OC(C)(C)C` (configuration not stated) (Boc-YMFG-OMe; configuration not given here), for which the GI50 is over 100 µM in the test on HCT-15; 45.3 µM (inactive) in the test on SN12C; 49.8 µM (inactive) with K562; 31.5 µM (inactive) in the test on HOP-62; 40.3 µM (inactive) in the test on SW-620; > 100 µM (inactive) in the test with PC-3. For the same compound, the GI50 is > 100 µM (inactive) in the test with DU-145; 33 µM (inactive) with HT-29; 41.8 µM (inactive) in the test with MCF7; > 100 µM (inactive) with NCI-H226; > 100 µM (inactive) with A549; 22.3 µM (inactive) with RPMI-8226. For the same compound, the GI50 with A498 is > 100 µM (inactive); in the test on HCC 2998, 23.2 µM (inactive); in the test on BT-549, 35.3 µM (inactive); with LOX IMVI, 18.5 µM (inactive); in the test on IGROV-1, 62.7 µM (inactive); in the test with SNB-19, 37.8 µM (inactive).

In the case of `CC(C#N)Nc1ccc(Oc2ccc(C(C)(C)c3ccc(Oc4ccc(NC(C)C#N)cc4)cc3)cc2)cc1` (configuration not stated), the GI50 is over 100 µM in the test with HCT-15; > 100 µM (inactive) in the test with SN12C; > 100 µM (inactive) in the test with K562; > 100 µM (inactive) in the test on SW-620; 79.4 µM (inactive) in the test on PC-3; > 100 µM (inactive) in the test on HT-29. The GI50 in the test with MCF7 is 6.25 µM (inactive); in the test with NCI-H226 it was > 100 µM (inactive); with A549, > 100 µM (inactive); in the test on A498, > 100 µM (inactive); in the test with HCC 2998, 22.3 µM (inactive); with BT-549, > 100 µM (inactive). Also, the GI50 with LOX IMVI, in the test on IGROV-1 and in the test on SNB-19 was > 100 µM (inactive) in each case.

With `Clc1nc(Nc2nc3ccccc3[nH]2)nc(Cl)c1Cc1ccccc1`, the GI50 in the test with HCT-15 is 40.2 µM; in the test with SN12C, 59.4 µM (inactive); with K562, > 100 µM (inactive); with SW-620 it was > 100 µM (inactive); with PC-3, > 100 µM (inactive); in the test on CCRF-CEM, 63.5 µM (inactive). For the same compound, the GI50 in the test on DU-145 was > 100 µM (inactive); with HT-29, 54.1 µM (inactive); in the test on NCI-H226 it was > 100 µM (inactive); with A549 it was > 100 µM (inactive); in the test with RPMI-8226 it was > 100 µM (inactive); with A498 it was > 100 µM (inactive). Moreover, the GI50 is > 100 µM (inactive) with BT-549, 97.3 µM (inactive) with IGROV-1, 93.1 µM (inactive) with SNB-19 and > 100 µM (inactive) with SR.

In the case of `CN(C)/N=N/c1nc2c(c(=O)n(C)c(=O)n2C)n1CC1CO1` (configuration not stated), the 50% growth inhibitory concentration (GI50) in the test on HCT-15 was 14.2 µM; in the test with SN12C it was 15.7 µM (inactive); in the test on K562, 19.2 µM (inactive); with HOP-62, 12.1 µM (inactive); in the test with SW-620, 15 µM (inactive); in the test with PC-3, 20.7 µM (inactive). Also, the GI50 with CCRF-CEM is 23.8 µM (inactive); in the test on DU-145 it was 14.4 µM (inactive); in the test on HT-29, 13.6 µM (inactive); in the test on MCF7, 5.38 µM (inactive); with NCI-H226 it was 8.51 µM (inactive); in the test with A549, 20 µM (inactive). Besides, the GI50 with RPMI-8226 is 23.8 µM (inactive); with HCC 2998 it was 12.7 µM (inactive); in the test with BT-549 it was 17.1 µM (inactive); with LOX IMVI it was 8.43 µM (inactive); in the test on IGROV-1 it was 11.7 µM (inactive); in the test on SNB-19, 19.9 µM (inactive).
